Like-named read-outs stand apart in the source and are kept apart here. Where a SMILES comes first, the peptide text is derived from it. Bridges are numbered along the chain shown (N, C = ends). [ ]: non-standard residue; d: D form.
Columns and labels:
[1] = system: estrogen independent MXT mouse mammary cancers; experiment: Effect of cytotoxic LH-RH analogs on estrogen independent MXT mouse mammary cancers (KS-47); assay type: in vivo
Experimental: MXT (3.2) ovex tumor pieces (1 mm^3) were transplanted in female B6 D2 F1 mice. The treatment started one day after transplantation and was continued for 12 days by i.p. injections once a day. Tumors were measured on days 10, 14 and 18, and tumor volume was calculated.

[2] = system: MCF-7 human mammary carcinoma cell line; assay type: cell-based
Excerpt: (§1) MXT estrogen-independen mouse mammary carcinoma cell line was obtained from Dr. Gunter Berndhart, University of Regensburg, Germany. All the other cell lines used in the determination of the antiproliferative activity of the compounds of this invention were obtained from the American Type Culture Collection (ATCC).
(§2) For the evaluation of the activity of the analogs, a colorimetric cytotoxicity assay in microtitration plates was used based on quantification of biomass by staining cells with crystal violet, which correlates very well with determination of cell numbers. (Reile et al.; Anal. Biochem. 187, 262-267, 1990; Bernhardt G. et al, J. Cancer Res. Clin. Oncol. (1992), 118, 35-43; Spruss Th. et al, J. Cancer Res. Clin. Oncol 117, 435-443, 1991; Gillies, R. J., Anal. Biochem. 159, 109-113, 1986; Kueng, W. et al.; Anal. Biochem., 182 16-19, 1989.)
(§3) One to two days after seeding cells in 96-well plates the culture medium is exchanged with fresh medium containing the compounds to be tested and fresh medium only for the control cultures. After varying time of incubation, cells are fixed with glutaric dialdehyde and stored under […] at 4° C. until the end of the experiment. Cells are stained with crystal violet and bound stain is extracted with 70% aqueous EtOH. Optical density is measured with EIA Reader (Bio-Tek Instruments) or Biomek 1000 (Beckman) at 590 nm or 600 nm, respectively. Each data point represents the mean value of eight culture wells. T/C values are calculated as T/C=(T-C0)/(C-C0) where T=optical density of treated cultures, C=optical density of control (untreated) cultures, C0 =optical density of cultures at the start of incubation (t=0).
Cells were incubated in IMEM media containing 5% Hl:DCC-FBS (heat inactivated dextran coated charcoal treated fetal bovine serum) on 96 well plates. Relative cell number in treated and control plates was determined by the crystal violet staining method and was expressed as T/C values where T/C=T-C0 /C-C0×100 [T=absorbance of treated cultures, C= absorbance of control cultures, C0 =absorbance of cultures at the start of incubation (t=0). The measured absorbance is proportionate to the cell number.]

[3] = system: estrogen independent MXT mouse mammary cancers; experiment: Earlier experiment with Q2 daily dosing (tumor growth, survival)
[4] = system: MIIA PaCa-2 Human Pancreatic Cancer Cell Line; experiment: Growth of MIIA PaCa-2 cells in vitro (crystal violet T/C); assay type: cell-based
Excerpt: as §2, §3
Cells were incubated in RPMI 1640 media containing 10% fetal bovine serum on 96 well plates. [drawing 8]

[5] = system: growth hormone release from superfused rat pituitary cells; experiment: Inhibition of hGH-RH(1-29)NH2 induced GH release, rat pituitary superfusion system; assay type: cell-based
Experimental: Accordingly, this method was used to compare the cytotoxic somatostatin analogs of the present invention to their parent carrier molecules with respect to their hormonal activities.
In rat pituitary superfusion system, the somatostatin analogs were administered for 3 min at 1 nM dose simultaneously with 1 nM hGH-RH(1-29)NH2. The infusion of the somatostatin analogs was maintained for another 6 min. GH responses to 3 min administration of 1 nM hGH-RH(1-29)NH2 were determined during the perfusion of the somatostatin analogs (0 min) and 30, 60 and 90 min after the administration stopped.

[6] = system: estrogen independent MXT mouse mammary cancers; experiment: Single treatment of estrogen independent MXT mouse mammary cancers (KS-55); assay type: in vivo
Experimental: In order to determine the maximum tolerated doses and compare the effects, MXT (3.2) ovex tumor pieces (1 mm^3) were implanted s.c. in female B6 D2 F1 mice. One day after transplantation the mice were randomly divided into groups of five animals and they were treated with a single injection i.p. The groups and doses are shown in the Table 25-1. […] The compounds were dissolved in 0.1% TFA (pH: 2.0). Tumor volume was measured on days 10, 13, 17, and 20.

[7] = system: estrogen independent MXT mouse mammary cancers; experiment: Treatment of estrogen independent MXT mouse mammary cancers (KS-49); assay type: in vivo; conditions: for Average survival: 520 nmol/inj. i.p., 3 weeks, total 1560 nmol (Group 13)
Excerpt: In order to compare the tumor inhibitory activity of cytotoxic doxorubicin derivative, Q6 and its targeted cytotoxic peptide conjugate, Q6^14 gL as well as the well known antineoplastic agent, DOX and to determine the optimal way of administration and the nontoxic doses, LH-RH receptor positive MXT (3.2) ovex tumor pieces (1 mm^3) were implanted s. c. in female B6 D2 F1 mice. One day after transplantation the mice were randomly divided into groups of five animals and the treatment started. The compounds were dissolved in 0.1% trifluoroacetic acid (pH 2) and given intraperitoneally.

[8] = system: MXT estrogen independent mouse mammary carcinoma cell line; experiment: In vitro cytotoxic activity, crystal violet colorimetric assay on MXT; assay type: cell-based
Excerpt: as §1, §2, §3

[9] = system: CFPAC-1 Human Pancreatic Cancer Cell; experiment: Growth of CFPAC-1 cells in vitro (crystal violet T/C); assay type: cell-based
Excerpt: as §2, §3

[10] = daily dose of 30 nmol (equimolar) i.p. for 12 days
[11] = Table 17-1, 10^-8 M; incubation 70 hr
[12] = Table 17-1, 10^-8 M; incubation 120 hr
[13] = Table 17-1; 3 × 10^-8 M; incubation 70 hr
[14] = Table 17-1; 3 × 10^-8 M; incubation 120 hr
[15] = Table 17-1; 10^-8 M; incubation 70 hr
[16] = Table 17-1; 10^-8 M; incubation 120 hr
[17] = 0 min (during perfusion of 1 nM somatostatin analog), percentage of GH release before analog
[18] = 30 min after infusion of 1 nM somatostatin analog
[19] = 60 min after infusion of 1 nM somatostatin analog
[20] = single i.p. injection 650 nmol/20 g
[21] = single i.p. injection 700 nmol/20 g
[22] = single i.p. injection 750 nmol/20 g

Compound: COc1cccc2c1C(=O)c1c(O)c3c(c(O)c1C2=O)C[C@@](O)(C(=O)CO)C[C@@H]3O[C@H]1C[C@H](N2CCCC2)[C@H](O)[C@H](C)O1.O=C(O)C(F)(F)F [Compound Q2, 3'-deamino-3'-(pyrrolidine-1"-yl)doxorubicin]
- Effect on tumor growth [1, 10]: strong inhibitory effect on tumor growth
- Mean survival after transplantation [1, 10]: 17.9 days
- Mean tumor volume on day 10 [1, 10]: 153 mm^3
- Mean tumor volume on day 14 [1, 10]: 144 mm^3
- Mean tumor volume on day 18 [1, 10]: 137 mm^3
- Toxicity ([1]; daily dose of 30 nmol i.p. for 12 days): severe toxicity
- T/C Value [2, 11]: -26
- T/C Value [2, 12]: -19
- T/C Value [2, 13]: 25
- T/C Value [2, 14]: 17
- T/C Value [2, 15]: 97
- T/C Value [2, 16]: 94
- Effect on tumor growth ([3]; 20 nmol daily dose for 17 days): only a moderate inhibitory effect on tumor growth
- Mean survival ([3]; 40 nmol dose): 14.6 days
- Toxicity ([3]; 40 nmol dose): toxic

Compound: C[C@@H](O)[C@H](NC(=O)[C@@H]1CSSC[C@H](NC(=O)[C@H](N)Cc2c[nH]c3ccccc23)C(=O)N[C@@H](Cc2ccccc2)C(=O)N[C@H](Cc2c[nH]c3ccccc23)C(=O)N[C@@H](CCCCN)C(=O)N[C@@H]([C@@H](C)O)C(=O)N1)C(N)=O [Compound S-98] (H-[dW]CF[dW]KTCT-NH2; disulfide 2-7)
- T/C Value ([4]; 10^-6 M, incubation 28 h): 96
- T/C Value ([4]; 10^-6 M, incubation 76 h): 98
- GH release induced by 3 min administration of 1 nM hGH-RH(1-29)NH2 [5, 17]: 2.9%
- GH release induced by 3 min administration of 1 nM hGH-RH(1-29)NH2 [5, 18]: 94.7%
- GH release induced by 3 min administration of 1 nM hGH-RH(1-29)NH2 [5, 19]: 117.6%

Compound: CC(C)[C@@H]1NC(=O)[C@H](CCCCN)NC(=O)[C@@H](Cc2c[nH]c3ccccc23)NC(=O)[C@H](Cc2ccc(O)cc2)NC(=O)[C@@H](NC(=O)[C@H](N)Cc2ccccc2)CSSC[C@@H](C(=O)N[C@H](C(N)=O)[C@@H](C)O)NC1=O [Compound S-121]
- T/C Value ([4]; 10^-6 M, incubation 28 h): 76
- T/C Value ([4]; 10^-6 M, incubation 76 h): 96
- GH release induced by 3 min administration of 1 nM hGH-RH(1-29)NH2 [5, 17]: 0%
- GH release induced by 3 min administration of 1 nM hGH-RH(1-29)NH2 [5, 18]: 90%
- GH release induced by 3 min administration of 1 nM hGH-RH(1-29)NH2 [5, 19]: 89.7%

Compound: COc1cccc2c1C(=O)c1c(O)c3c(c(O)c1C2=O)C[C@@](O)(C(=O)CO)C[C@@H]3O[C@H]1C[C@H](N)[C@H](O)[C@H](C)O1 [Doxorubicin, doxorubicin]
- Suppression of tumor growth ([6]; dose of 650 nmol/20 g mouse (as printed in text)): significantly less effective
- Toxicity ([6]; single dose of 650 nmol/20 g mouse (as printed in text)): highly toxic
- Average survival [6, 20]: 13.6 days
- Number of tumorous mice/number of surviving mice Day 10 [6, 20]: 3/3
- Number of tumorous mice/number of surviving mice Day 13 [6, 20]: 2/2
- Number of tumorous mice/number of surviving mice Day 17 [6, 20]: 1/1
- Number of tumorous mice/number of surviving mice Day 20 [6, 20]: 1/1
- Average survival [6, 21]: 15.2 days
- Number of tumorous mice/number of surviving mice Day 10 [6, 21]: 2/3
- Number of tumorous mice/number of surviving mice Day 13 [6, 21]: 2/3
- Number of tumorous mice/number of surviving mice Day 17 [6, 21]: 2/2
- Average survival [6, 22]: 7.8 days
- Number of tumorous mice/number of surviving mice Day 10 [6, 22]: 1/1
- Average survival [7]: 20 days
- Average survival ([7]; listed as DOX): 20.0 days
- Eradication of the tumor ([7]; toxic dose, total amount 1560 nmol): could not eradicate the tumor
- T/C Value ([4]; 10^-6 M, incubation 28 h): -28
- T/C Value ([4]; 10^-6 M, incubation 76 h): -7
- T/C Value ([4]; 10^-7 M, incubation 28 h): 64
- T/C Value ([4]; 10^-7 M, incubation 76 h): 10
- T/C Value ([4]; 10^-8 M, incubation 28 h): 95
- T/C Value ([4]; 10^-8 M, incubation 76 h): 71
- T/C Value [2, 11]: 54
- T/C Value [2, 12]: 33
- T/C Value [2, 13]: 82
- T/C Value [2, 14]: 66
- T/C Value [2, 15]: 98
- T/C Value [2, 16]: 95
- T/C Value on MCF-7 Cell Line ([2]; Table 18-1; 3 × 10^-8 M; 70 hr): 82
- T/C Value on MCF-7 Cell Line ([2]; Table 18-1; 3 × 10^-8 M; 120 hr): 66
- T/C Value on MCF-7 Cell Line ([2]; Table 18-1; 10^-7 M; 70 hr): 54
- T/C Value on MCF-7 Cell Line ([2]; Table 18-1; 10^-7 M; 120 hr): 33
- T/C Value on MCF-7 Cell Line ([2]; Table 18-1; 10^-8 M; 70 hr): 98
- T/C Value on MCF-7 Cell Line ([2]; Table 18-1; 10^-8 M; 120 hr): 95
- T/C value on MXT cell line ([8]; 3 × 10^-8 M, 26 hr): 90
- T/C value on MXT cell line ([8]; 3 × 10^-8 M, 50 hr): 60
- T/C value on MXT cell line ([8]; 10^-7 M, 26 hr): 59
- T/C value on MXT cell line ([8]; 10^-7 M, 50 hr): 43
- T/C value on MXT cell line ([8]; 10^-8 M, 26 hr): 85
- T/C value on MXT cell line ([8]; 10^-8 M, 50 hr): 74
- T/C Value ([9]; 3 × 10^-7 M, incubation 66 h): 15
- T/C Value ([9]; 3 × 10^-7 M, incubation 95 h): 10
- T/C Value ([9]; 3 × 10^-7 M, incubation 137 h): 7
- T/C Value ([9]; 3 × 10^-8 M, incubation 66 h): 88
- T/C Value ([9]; 3 × 10^-8 M, incubation 95 h): 73
- T/C Value ([9]; 3 × 10^-8 M, incubation 137 h): 49
- T/C Value ([9]; 10^-6 M, incubation 66 h): -7
- T/C Value ([9]; 10^-6 M, incubation 95 h): -6
- T/C Value ([9]; 10^-6 M, incubation 137 h): -4
- T/C Value ([9]; 10^-7 M, incubation 66 h): 52
- T/C Value ([9]; 10^-7 M, incubation 95 h): 32
- T/C Value ([9]; 10^-7 M, incubation 137 h): 20
